From patent US9642825B2, “Bio-available N-acetyl creatine species and compositions thereof” (4141 HOLDINGS, LLC, priority 2014, dated 2017)
Each block holds one compound with its values, some of them ahead of it.

Experiments:
[1] = Dissolution time of 1 gram in distilled water at room temperature; type: physicochemical; conditions: 75 RPM
[2] = Dissolution time of 1 gram in 0.1N HCl (pH 1.2); type: physicochemical; conditions: 1.000 Gram in 900 ml 0.1N HCl in Water, pH = 1.2, 73 C., 75 RPM
[3] = Chemical stability in aqueous media (conversion to creatinine); type: physicochemical
Description: As may be seen, 1 gram of N-acetyl creatine dissolves faster than other creatine derivatives, except creatine ethyl ester HCl, designated Creatine EE Hcl—(High Creatine Conversion) in FIG. 1. However, this shorter dissolution time may be deceiving. […] Instead, Creatine ethyl ester HCl decomposes into creatinine in a matter of 2 to 3 minutes. Creatinine is an excretory byproduct produced from the breakdown of creatine phosphate and offers none of the numerous benefits of creatine. In other words, Creatine ethyl ester HCl is unstable and its rapid conversion to creatinine makes it ineffective in delivering bioavailable creatine to the body.

human fibroblasts = conditions: cited from earlier work
Solubility in water = type: physicochemical
[4] = tested on: muscle strength and weightlifting performance; conditions: cited from earlier work
[5] = tested on: person with myasthenia gravis; conditions: five grams daily, resistance training 3 times per week for 15 weeks; cited from earlier work
myostatin = conditions: cited from earlier work
[6] = 1.000 Gram in 900 ml Distilled Water, creatine types
[7] = 1.000 g in 900 ml Distilled Water, L-leucine versus N-acetyl L-leucine
[8] = creatine supplementation plus resistance training
[9] = versus placebo ingestion during resistance training

Compound: CN(CC(=O)O)C(=N)N.O [Creatine Monohydrate]
Time (Minutes) to dissolve [1, 6]: 14.42 min

Time (Minutes) to dissolve [2]: 0.95 min | stability in solution (in words) [3]: unstable | Time (Minutes) to dissolve [1, 6]: 1.68 min
Compound: CCOC(=O)CN(C)C(=N)N.Cl [Creatine ethyl ester HCl]

Compound: CN(CC(=O)O)C(=N)N.O=[N+]([O-])O [Creatine Nitrate]
Time (Minutes) to dissolve [1, 6]: 9.12 min

Compound: Creatine Taurinate
Time (Minutes) to dissolve [2]: 10.30 min | Time (Minutes) to dissolve [1, 6]: 15.85 min

Compound: CN(CC(=O)O)C(=N)N.O=C(O)CC(O)(CC(=O)O)C(=O)O [Creatine Citrate]
Time (Minutes) to dissolve [1, 6]: 10.10 min

Compound: CCCCCCCCCCCCOC(=O)CN(C)C(=N)N [dodecyl creatine ester]
increase compared with the endogenous creatine content (human fibroblasts): 20 fold

solubility in an aqueous medium (in words) (Solubility in water; aqueous medium): extremely poor solubility | Time (Minutes) to dissolve [1, 7]: 120.17 min
Compound: CC(=O)N[C@@H](CC(C)C)C(=O)O [N-Acetyl Leucine, N-acetyl L-leucine]

solubility in an aqueous medium (in words) (Solubility in water; aqueous medium): very low water solubility | solubility of free leucine relative to N-acetyl-Leucine (Solubility in water; aqueous medium): ten times greater | Time (Minutes) to dissolve [1, 7]: 12.82 min
Compound: CC(C)C[C@H](N)C(=O)O [Leucine, L-leucine]

Time (Minutes) to dissolve [2]: 6.33 min | Time (Minutes) to dissolve [1, 6]: 25.02 min
Compound: CN(CC(=O)N[C@@H](CCC(N)=O)C(=O)O)C(=N)N [Creatyl-L-Glutamine]

Time (Minutes) to dissolve [2]: 2.17 min | times more soluble than the parent compound creatine (Solubility in water): 30 times | increase of solubility with respect to creatine monohydrate (Solubility in water; water): 30 fold | solubility in water (Solubility in water; water): 400 grams/1 liter | stability in solution (in words) [3]: remains stable in solution | Time (Minutes) to dissolve [1, 6]: 3.70 min
Compound: CC(=O)NC(=N)N(C)CC(=O)O [N-acetyl creatine]

Compound: CN(CC(=O)O)C(=N)N [creatine, 2-(carbamimidoyl-methyl-amino) acetic acid]
average increase in muscle strength [4, 8]: 20% | average increase in weightlifting performance (maximal repetitions at a given percent of maximal strength) [4, 8]: 26% | average increase in muscle strength, greater than following placebo [4, 9]: 8% | average increase in weightlifting performance, greater than following placebo [4, 9]: 14% | improved peak strength [5]: up to 37% | increase in body weight [5]: 7% | increase in fat free mass [5]: 4% | myostatin blocked in muscle (myostatin): 60%

Time (Minutes) to dissolve [2]: 3.08 min | Time (Minutes) to dissolve [1, 6]: 9.05 min
Compound: CC(C)C[C@H](NC(=O)CN(C)C(=N)N)C(=O)O [Creatyl-L-Leucine]
